# According to US9611283B1, “Methods for inhibiting cell proliferation in ALK-driven cancers” (ARIAD Pharmaceuticals, Inc., priority 2013, dated 2017):
# Like-named read-outs stand apart in the source and are kept apart here.
# How the values were obtained:
# Parental Ba/F3 cells = assay: In vitro viability / Ba/F3 cellular proliferation assay, parental cells; format: cell-based; settings: Mus musculus; for IC50: BaF3
# [1] = target: Ba/F3 cells expressing EML4-ALK 1151 T insertion (Homo sapiens, UniProt Q9UM73, DUP1151-1151); assay: Ba/F3 cellular proliferation assay, EML4-ALK 1151 T insertion; settings: Table 2
# [2] = clinical, at MTD; cited from earlier work
# [3] = system: Ba/F3 cells expressing native EML4-ALK; assay: Accelerated in vitro mutagenesis screen
# [4] = system: Ba/F3 EML4-ALK G1269S tumors; assay: In vivo efficacy, xenograft of Ba/F3 cells expressing EML4-ALK G1269S; set-up: species or system SCID Beige mice; settings: 50 and 75 mg/kg, once daily oral gavage
# EML4-ALK S1206R tumors = assay: Pharmacodynamics: p-ALK in EML4-ALK S1206R tumors in vivo; set-up: species or system mice; settings: sustained for 24 hrs after single dose of 50 mg/kg
# Experimental: Calibration standards were prepared in blank mouse plasma.
# [5] = system: Ba/F3 EML4-ALK S1206R tumors; assay: In vivo efficacy, xenograft of Ba/F3 cells expressing EML4-ALK S1206R; set-up: species or system SCID Beige mice; settings: 75 mg/kg, once daily oral gavage
# [6] = Table 2, Ba/F3 parental, read-out: IC50
structure (smiles),measurement,setting,value
COc1cc(N2CCC(N3CCN(C)CC3)CC2)ccc1Nc1ncnc(Nc2ccccc2S(=O)(=O)C(C)C)n1 [ASP3026],IC50,Parental Ba/F3 cells; [6],> 10 µM
same,IC50,[1],5.94 ± 2.28 µM
CCc1cc2c(cc1N1CCC(N3CCOCC3)CC1)C(C)(C)c1[nH]c3cc(C#N)ccc3c1C2=O [CH5424802],IC50,Parental Ba/F3 cells; [6],> 10 µM
C[C@@H](Oc1cc(-c2cnn(C3CCNCC3)c2)cnc1N)c1c(Cl)ccc(F)c1Cl [crizotinib],inhibition at […],"Parental Ba/F3 cells; BaF3, read-out: inhibition of parental Ba/F3 cell proliferation",> 90%
same,IC50,Parental Ba/F3 cells; [6],2.06 ± 0.373 µM
same,median Ctrough,[2],~225 ng/mL
COc1cc(N2CCC(N3CCN(C)CC3)CC2)ccc1Nc1ncc(Cl)c(Nc2ccccc2P(C)(C)=O)n1 [Compound 1],mutations recovered,[3]; at 500 nM (S1206R),only one
same,concentration that completely suppressed the emergence of resistance,[3]; mutagenesis screen,1000 nM
same,mutants recovered in the screen,[3]; number of different mutants,ten
same,tumor response in xenograft,[4],complete tumor regression
same,p-ALK inhibition,EML4-ALK S1206R tumors,40-60%
same,IC50,"Parental Ba/F3 cells; Table 1, Parental Ba/F3 (IL-3), 72 h, n = 5, read-out: IC50s",2.19 ± 0.41 µM
same,IC50,Parental Ba/F3 cells; [6],4.58 ± 1.55 µM
same,tumor response in xenograft,[5],tumor growth inhibition
